Test results published in paper PMC7927096, “Dipeptides of S-Substituted Dehydrocysteine as Artzyme Building Blocks: Synthesis, Complexing Abilities and Antiproliferative Properties” (International Journal of Molecular Sciences, 2021).
Counter-ions that a name gives are not always drawn.

Legend:
[1] = test system: ten diverse human cancer cells lines and murine non-tumorigenic cell line (Balb/3T3); assay: Antiproliferative screen, whole cell line panel (statements in words); assay type: cell-based; settings: SRB, across cell lines
From the text: (§1) Ten different human cancer cell lines (including drug-resistant sublines) and one non-tumorigenic murine fibroblasts cell line were used to determine antiproliferative activity of the tested compounds. The MDA-MB-231 (breast adenocarcinoma), UM-UC-3 (urinary bladder transitional cell carcinoma), LoVo (colorectal adenocarcinoma), LoVo^Dx (colorectal adenocarcinoma, doxorubicin-resistant) and Balb/3T3 (non-tumorigenic murine fibroblasts) were purchased from the American Type Culture Collection (ATCC; Rockville, USA). The MCF-7 (breast adenocarcinoma) and A549 (lung carcinoma) were purchased from European Collection of Authenticated Cell Cultures (ECACC; Porton Down, UK). The UM-UC-3^CDDP, UM-UC-3^GEM, UM-UC-3^VBL, and UM-UC-3^CDDP/GEM cell lines were established at Hirszfeld Institute of Immunology and Experimental Therapy of the Polish Academy of Sciences (HIIET, PAS, Wroclaw, Poland) by the continuous exposure to the increasing concentrations of corresponding cytostatics.
(§2) The Balb/3T3 and UM-UC-3 were cultured in Dulbecco’s Modified Eagle Medium (DMEM; Life Technologies, UK) supplemented with 10% (v/v) fetal bovine serum (FBS; GE Healthcare HyClone, Logan, USA) and 2 mM L-glutamine (Sigma-Aldrich, Poznań, Poland). The UM-UC-3^CDDP, UM-UC-3^GEM, UM-UC-^3VBL, and UM-UC-3^CDDP/GEM culture media were additionally supplemented with appropriate cytostatics: 2.5 µg/mL cisplatin (Accord, Warsaw, Poland) for UM-UC-3^CDDP, 500 nM gemcitabine (Sigma-Aldrich, Poznań, Poland) for UM-UC-3^GEM, 5 nM vinblastine (Sigma-Aldrich, Poznań, Poland) for UM-UC-3VBL, 2.5 µg/mL cisplatin and 500 nM gemcitabine for UM-UC-3^CDDP/GEM. The LoVo cell line was cultured in F-12K Nutrient Mixture (F-12K; Corning, Corning, USA), supplemented with 10% (v/v) FBS. LoVo^Dx culture medium was additionally supplemented with doxorubicin 100 ng/mL (Accord, Warsaw, Poland). The MCF-7 cell line was cultured in Eagle’s medium (HIIET, PAS, Wroclaw, Poland), supplemented with 10% (v/v) FBS (Sigma-Aldrich, Poznań, Poland), 2 mM L-glutamine, MEM non-essential amino acid solution 1% (v/v) (Sigma-Aldrich, Poznań, Poland), insulin 8 µg/mL (Sigma-Aldrich, Poznań, Poland). The MDA-MB-231 cell line was cultured in RPMI 1640 (HIIET, PAS, Wroclaw, Poland), supplemented with 10% (v/v) FBS (Sigma-Aldrich, Poznań, Poland) and 2 mM L-glutamine. The A 549 cell line was cultured in OptiMEM (HIIET, PAS, Wroclaw, Poland), supplemented with 5% (v/v) FBS (GE Healthcare HyClone, Logan, USA) and 2 mM L-glutamine. All culture media were supplemented with antibiotics—100 μg/mL streptomycin (Polfa Tarchomin, Warsaw, Poland) and 100 U/mL penicillin (Sigma-Aldrich, Poznań, Poland).
(§3) All cell lines were cultured in a humidified atmosphere at 37 °C with 5% (v/v) CO2 and passaged twice a week using EDTA-Trypsin solution (pH 8; HIIET, Wroclaw, Poland) as a detachment agent.
(§4) All compounds, for antiproliferative activity assessment, were stored at […] as 50 mM solutions in dimethyl sulfoxide (DMSO; Avantor Performance Materials, Gliwice, Poland).
(§5) The cells were seeded on 384-well plates (Greiner Bio One, Kremsmünster, Austria) at 1 × 10^3 cells/well density for A 549, UM-UC-3, UM-UC-3^CDDP, UM-UC-3^GEM, UM-UC-3^CVBL and UM-UC-3^CDDP/GEM cell lines. Other cell lines were seeded at 2 × 10^3 cells/well. After overnight incubation, compounds were applied at eight concentrations (ranging from 100 µM to 0.03 µM). After 72 h incubation, the sulforhodamine B (SRB) assay based on Skehan et al. was carried out with slight modifications. In brief, 50 µL of the medium was replaced with 30 µL/well of 25% (w/v) trichloroacetic acid (Avantor Performance Materials, Gliwice, Poland). After 1 h incubation at room temperature, plates were washed three times with tap water, and 20 µL of 0.1% (w/v) solution of sulforhodamine B (Sigma-Aldrich, Poznan, Poland) in 1% (v/v) acetic acid (Avantor Performance Materials, Gliwice, Poland) was added to each well. […]

[2] = test system: Balb/3T3 (non-tumorigenic murine fibroblasts); assay: Antiproliferative activity, sulforhodamine B assay; assay type: cell-based; settings: Mus musculus, BALB/3T3; SRB, 72 h incubation; non-tumorigenic line; read-out: IC50 ± SD, Balb/3T3
From the text: as §1, §2, §3, §4, §5

A549 (lung carcinoma) = assay: Antiproliferative activity, sulforhodamine B assay; assay type: cell-based, human; settings: Homo sapiens, A549; SRB, 72 h incubation; read-out: IC50 ± SD, A-549
From the text: as §1, §2, §3, §4, §5

[3] = test system: LoVo (colorectal adenocarcinoma); assay: Antiproliferative activity, sulforhodamine B assay; assay type: cell-based, human; settings: Homo sapiens, LoVo; SRB, 72 h incubation; read-out: IC50 ± SD, LoVo
From the text: as §1, §2, §3, §4, §5

[4] = test system: MDA-MB-231 (breast adenocarcinoma); assay: Antiproliferative activity, sulforhodamine B assay; assay type: cell-based, human; settings: Homo sapiens, MDA-MB-231; SRB, 72 h incubation; read-out: IC50 ± SD, MDA-MB-231
From the text: as §1, §2, §3, §4, §5

[5] = test system: LoVo^DX (colorectal adenocarcinoma, doxorubicin-resistant); assay: Antiproliferative activity, sulforhodamine B assay; assay type: cell-based, human; settings: Homo sapiens, LoVo/DX, SRB, 72 h incubation, read-out: IC50 ± SD, LoVo^DX
From the text: as §1, §2, §3, §4, §5

[6] = test system: MCF-7 (breast adenocarcinoma); assay: Antiproliferative activity, sulforhodamine B assay; assay type: cell-based, human; settings: Homo sapiens, MCF7; SRB, 72 h incubation; read-out: IC50 ± SD, MCF-7
From the text: as §1, §2, §3, §4, §5

[7] = Potentiometric titration and spectroscopy, stability constants of Cu(II)-complexes; assay type: physicochemical; settings: for Cu(II) complexing ability (in words): 10a versus 9a below pH 5, 9a versus Gly(Z)Phe, nL:nCu(II) = 1:1
Experimental: (§6) The pH-metric measurements were performed on Metrohm 905 Titrando system equipped with combined Biotrop® electrode. The titrant was 0.1 M KOH (Merck, Germany) freed of CO2 by bubbling Ar gas for 3 h. The electrode calibration was performed before each titration. The volume of all the samples was 1.5 mL and the measurements were carried out at a range of pH of 2.5–11.0 in thermostated vessels at 298 K in an inert atmosphere of Ar gas. The ligands 9a and 10a were diluted in hydrochloric acid (pH = 2.5), prepared from 37% HCl (Sigma-Aldrich, Poland). Their concentration was set up at a range of 1.0–2.0 × 10^−3 M and the ionic strength of 0.1 M was achieved by the addition of KCl (Sigma-Aldrich, Poland). The ligand-metal ion systems were prepared by addition of CuCl2 (Sigma-Aldrich, Poland). stock solutions to reach final ligand to metal ratio (nL: nCu^2+) being 2:1 or 1:1.
(§7) The protonation (βi = [HiL]/[H^+]^i[L]), stability constants (βpqr = [MpHqLr]/[M]^p[H]^q[L]^r), and stoichiometry of complexes were calculated using the HYPERQUAD program. The distribution species plots were made by HySS program. The standard deviations were computed for all the constants and indicated the presence of only random errors, which was a good evidence of the presence of each species in the equilibrium.
The UV-Vis absorption measurements were recorded on Varian Carry 50 Bio spectrophotometer. All spectra were collected in a quartz cuvette with 1 cm path length at 298 K. The spectral range was 300–800 nm with resolution 0.1 nm. The molar extinction coefficients (ε [M^−1cm^−1]) were calculated for each spectrum at a wavelength of maximum absorption.
The Circular Dichroism spectra (CD) and Magnetic Circular Dichroism (MCD) were measured on a JASCO J 600 spectropolarimeter in a range of 230–800 nm with 0.1 nm resolution. The optical length of the quartz cuvettes was 10 mm. The molar circular dichroism coefficient (Δε [M^−1cm^−1]) was calculated for each spectrum.
The Electron Paramagnetic Resonance (EPR) spectra were recorded on a Brucker ESP 300E spectrometer at X-band frequency (9.5 GHz) at 77 K obtained by the use of liquid nitrogen. The procedure of sample preparation for spectroscopic measurements was the same as in potentiometric titration. The EPR samples were protected by adding 30% of ethylene glycol (Sigma-Aldrich, Poland). The pH of the samples was determined by adding a small quantity of a concentrated solution of KOH (Merck, Germany) to achieve the desired value and controlled by Mettler Toledo pH-meter equipped with combined electrode InLab®Micro. The simulation of the EPR spectrum was performed by the Hyperfine Spectrum program written by W.R. Hagen.

[8] = Potentiometric titration, protonation constants of free ligands; assay type: physicochemical; settings: 298 K, ionic strength 0.1 M KCl; for protonation constant logβ, H2L / protonation constant logβ, H3L / protonation constant logβ, HL: ± SD
Experimental: as §6, §7

[9] = 298 K, ionic strength 0.1 M KCl
[10] = 298 K, ionic strength 0.1 M KCl, ± SD

SMILES	antiproliferative activity (in words) [1]	IC50 (A549 (lung carcinoma)) [µM]	IC50 [4] [µM]	IC50 [6] [µM]	Cu(II) complexing ability (in words) [7]	logK, Cu2L2H [7, 9]	logK, CuL [7, 9]	logK, CuL2H [7, 9]	logK, CuLH2 [7, 9]	stability constant logβ, Cu2L2H [7, 10]	stability constant logβ, Cu2L2H-1 [7, 10]	stability constant logβ, CuL [7, 10]	stability constant logβ, CuL2 [7, 10]	stability constant logβ, CuL2H [7, 10]	stability constant logβ, CuLH2 [7, 10]	stability constant logβ, CuLH-1 [7, 10]	protonation constant logK, H3L [8]	protonation constant logK, HL [8]	protonation constant logβ, H2L [8]	protonation constant logβ, H3L [8]	other results
COC(=O)/C(=C/Sc1nc[nH]n1)NC(=O)CNC(=O)OC(C)(C)C [Compound 6a, Boc-Gly-ΔCys(S-triazole)-OMe]	markedly lower, if any, activity	–	–	–	–	–	–	–	–	–	–	–	–	–	–	–	–	–	–	–	–
COC(=O)/C(=C/Sc1nc2c(N)ncnc2[nH]1)NC(=O)CNC(=O)OC(C)(C)C [Compound 6e, Boc-Gly-ΔCys(S-adenine)-OMe]	markedly lower, if any, activity	–	–	–	–	–	–	–	–	–	–	–	–	–	–	–	–	–	–	–	–
COC(=O)/C(=C/Sc1nc2c(N)ncnc2[nH]1)NC(=O)[C@H](Cc1ccccc1)NC(=O)OC(C)(C)C [Compound 7e, Boc-Phe-ΔCys(S-adenine)-OMe]	markedly lower, if any, activity	> 100	74.5 ± 7.7	101 ± 11.3	–	–	–	–	–	–	–	–	–	–	–	–	–	–	–	–	IC50 [2]: > 100 µM; IC50 [3]: 81.7 ± 12.4 µM; IC50 [5]: > 100 µM
COC(=O)/C(=C/Sc1nc[nH]n1)NC(=O)CN [Compound 9a, HCl Gly-ΔCys(S-triazole)-OMe]	–	–	–	–	significantly more effective in Cu(II) coordination	14.45	10.42	8.73	9.34	36.61 ± 0.03	22.16 ± 0.06	14.18 ± 0.01	20.06 ± 0.04	28.79 ± 0.04	23.52 ± 0.03	3.76 ± 0.04	7.26	10.09	18.05 ± 0.01	25.31 ± 0.01	logK, CuL2 [7, 9]: 11.35; logK, CuL2H2 [7, 9]: 7.67; stability constant logβ, CuL2H2 [7, 10]: 36.46 ± 0.04; stability constant logβ, CuL2H-1 [7, 10]: 8.71 ± 0.07; corrected stability constant (logβ = logβCuLH2 − logβH2L) ([7]; CuH2L complex, equimolar conditions): 5.47; logβ* = logβCuL − logKHL ([7]; CuL species, independent of logKtriazole): 4.09; protonation constant logβ, HL [8]: 10.09 ± 0.01
COC(=O)/C(=C/Sc1nc2ccccc2s1)NC(=O)CN [Compound 9d, HCl Gly-ΔCys(S-benzothiazole)-OMe]	–	33.4 ± 6.4	56 ± 7.1	> 100	–	–	–	–	–	–	–	–	–	–	–	–	–	–	–	–	–
COC(=O)/C(=C/Sc1nc[nH]n1)NC(=O)[C@@H](N)Cc1ccccc1 [Compound 10a, HCl Phe-ΔCys(S-triazole)-OMe]	–	–	–	–	significantly more effective binder of Cu(II)	14.59	10.61	8.45	8.83	37.54 ± 0.06	22.95 ± 0.06	15.00 ± 0.01	20.37 ± 0.05	28.82 ± 0.11	23.83 ± 0.03	4.39 ± 0.03	6.85	10.42	18.53 ± 0.02	25.38 ± 0.02	protonation constant logβ, HL [8]: 10.42 ± 0.01
